Results as given in patent US12458616B2, “Levodopa dosing regimen” (Amneal Pharmaceuticals, LLC, priority 2020, dated 2025).
Read-outs that look alike come from different tables or passages of the source.

Key:
[1] = Example 12 pharmacokinetics in healthy subjects: fed, sprinkled on applesauce, fasted; assay type: in vivo, human; conditions: Example 7 capsule 350 mg LD/87.5 mg CD; for Tmax: median (min-max); for AUC(0-t): hour 0 to 24 hours; for Cmax: po, single oral dose
Procedure: The dosage forms described in Example 7 were administered to 27 healthy male and female subjects between the ages of 18 and 55 with a body weight of at least 55 kg and body mass index of 18.5 to 30.0 kg/m^2 in a single site, open label, single dose, 3-treatment, 3-period, crossover study. The subjects were fasted overnight for at least 10 hours and received a single dose of 350 mg LD and 87.5 CD for each treatment separated by a 6 to 7 day washout period.
No additional food was allowed for at least 4 hours post dose.
Treatment B comprised the oral administration of one capsule prepared in accordance with Example 7 containing 350 mg LD and 87.5 mg CD wherein the contents of the capsule were sprinkled onto 1 tablespoon of applesauce. No additional food was allowed for at least 4 hours post dose.
Treatment C comprised the oral administration of one capsule prepared in accordance with Example 7 containing 350 mg LD and 87.5 mg CD with 240 mL of water. No food was allowed for at least 4 hours post dose.
For Treatments A and C the subjects were instructed to swallow the capsule intact and not to chew, divide or crush the tablet.
For Treatment B, the subjects were instructed to consume all the applesauce without crushing or chewing the beads.
Whole blood samples were taken prior to dosing and at 0.5, 1, 1.5, 2, 2.5, 3, 4, 5, 6, 7, 8, 10, 12, 16 and 24 hours post dose. The plasma samples were analyzed for concentrations of CD and LD by a validated liquid chromatography-tandem mass spectrometry (LC-MS/MS) method. Peak plasma (Cmax), area under the plasma concentration-time curve (AUCt and AUC∞), and time to maximum concentration (Tmax) for LD and CD were evaluated. The mean pharmacokinetic parameters are showing in the following table and in FIGS. 20 and 21.

[2] = cited from earlier work
[3] = both sexes, human, plasma, oral, Fasted, mean ± SD
[4] = both sexes, human, plasma, oral, Fasted, read-out: Tmax
[5] = both sexes, human, plasma, oral, Fed, read-out: Tmax
[6] = both sexes, human, plasma, oral, Fed, mean ± SD
[7] = both sexes, human, plasma, oral, Sprinkled on Applesauce, mean ± SD
[8] = both sexes, human, plasma, Fasted, mean ± SD
[9] = both sexes, human, plasma, Fed (high-fat breakfast), mean ± SD
[10] = both sexes, human, plasma, Sprinkled on Applesauce, mean ± SD

Structure (SMILES) | T1/2 ([1]; Fed, mean ± SD) | Tmax ([1]; Sprinkled on Applesauce) | half-life [1, 3] | Tmax [1, 4] | AUC(0-t) [1, 3] | Tmax [1, 5] | AUC(0-t) [1, 6] | half-life [1, 7] | AUC(0-t) [1, 7] | Cmax [1, 8] | Cmax [1, 9] | Cmax [1, 10] | plasma half-life ([2]; orally administered with CD) | plasma half-life ([2]; orally administered without CD) | half-life [1, 6] | Tmax ([1]; both sexes, human, plasma, oral, Sprinkled on Applesauce, read-out: Tmax)
N[C@@H](Cc1ccc(O)c(O)c1)C(=O)O [LD, levodopa] | 1.79 ± 0.3 h | 0.5 (0.5-5.0) h | 2 ± 0.3 h | 2 h | 9120 ± 2150 ng·h/mL | 4 h | 10600 ± 1430 ng·h/mL | 2.02 ± 0.31 h | 8330 ± 1960 ng·h/mL | 1830 ± 385 ng/mL | 2190 ± 473 ng/mL | 1630 ± 409 ng/mL | about 1.5 hours | about 50 minutes |  | 
C[C@@](Cc1ccc(O)c(O)c1)(NN)C(=O)O [Carbidopa] |  |  | 3.9 ± 0.56 h | 3 h | 2180 ± 906 ng·h/mL | 4 h | 751 ± 205 ng·h/mL | 3.95 ± 0.67 h | 1910 ± 618 ng·h/mL | 404 ± 157 ng/mL | 141 ± 41.1 ng/mL | 339 ± 91.8 ng/mL |  |  | 3.86 ± 0.78 h | 2.5 h
